According to the supplement of paper PMC10307832:

compound: CC1CC(=O)N(C2=CN=C(N=C2N1C3CCCC3)NC4=C(C=C(C=C4)C(=O)NC5CCN(CC5)C)OC)C [NPK76-II-72-1] + Cc1cc(Nc2cc(N3CCN(C)CC3)nc(Sc3ccc(NC(=O)C4CC4)cc3)n2)n[nH]1 [Tozasertib] (partner 0.1 µM); assay: relative viability (nuclei count vs DMSO), 5 days (fraction); higher = more cells survive; conditions: first compound 0.01 µM
Procedure, shortened: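 Relative viability was taken as the ratio of nuclei in treated wells to nuclei in vehicle wells. Lung cancer cell lines in 1536-well plates received compounds by pin tool one day after seeding, either one drug alone or a fixed anchor-drug dose plus five library-drug doses (not always all listed) in √10 steps. Nuclei were counted on 4× images after 5 days of treatment, and values are medians of duplicate plates.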

Cell Line	relative viability
NCI-H2405	0.723
HOP-62	0.333
LU99A	0.318
BEN	0.462
HARA	0.124
HCC-78	0.446
NCI-H322M	0.486
LCLC-97TM1	0.177
A-427	0.222
NCI-H441	0.825
NCI-H1734	0.29
NCI-H460	0.524
NCI-H2347	0.405
NCI-H1395	0.726
201T	0.884
NCI-H1915	0.479

Cell Line	relative viability
HCC-827	0.399
LXF-289	0.172
NCI-H23	0.367
NCI-H647	0.315
CAL-12T	0.33
NCI-H1651	0.632
EPLC-272H	0.278
NCI-H1355	0.534
NCI-H3122	0.389
NCI-H1437	0.393
NCI-H1755	0.669
HCC-15	0.394
NCI-H1793	0.34
PC-14	0.577
EKVX	0.335
LC-2-ad	0.469

same assay, conditions: first compound 0.03162 µM

Cell Line	relative viability
NCI-H2405	0.871
HOP-62	0.382
LU99A	0.309
BEN	0.46
HARA	0.0912
HCC-78	0.407
NCI-H322M	0.509
LCLC-97TM1	0.31
A-427	0.23
NCI-H441	0.659
NCI-H1734	0.271
NCI-H460	0.529
NCI-H2347	0.542
NCI-H1395	0.822
201T	0.948
NCI-H1915	0.455

Cell Line	relative viability
HCC-827	0.416
LXF-289	0.214
NCI-H23	0.386
NCI-H647	0.283
CAL-12T	0.324
NCI-H1651	0.919
NCI-H1355	0.582
NCI-H3122	0.425
NCI-H1437	0.469
NCI-H1755	0.663
HCC-15	0.384
NCI-H1793	0.377
PC-14	0.609
EKVX	0.339
LC-2-ad	0.491

same assay, conditions: first compound 0.1 µM

Cell Line	relative viability
NCI-H2405	0.762
HOP-62	0.397
LU99A	0.309
BEN	0.551
HARA	0.116
HCC-78	0.408
NCI-H322M	0.496
LCLC-97TM1	0.215
A-427	0.207
NCI-H441	0.635
NCI-H1734	0.28
NCI-H460	0.673
NCI-H2347	0.507
NCI-H1395	0.72
201T	0.984
NCI-H1915	0.47

Cell Line	relative viability
HCC-827	0.417
LXF-289	0.181
NCI-H23	0.35
NCI-H647	0.423
CAL-12T	0.314
NCI-H1651	0.661
EPLC-272H	0.281
NCI-H1355	0.605
NCI-H3122	0.366
NCI-H1437	0.391
NCI-H1755	0.526
HCC-15	0.342
NCI-H1793	0.36
PC-14	0.594
EKVX	0.416
LC-2-ad	0.436

same assay, conditions: first compound 0.3162 µM

Cell Line	relative viability
NCI-H2405	0.743
HOP-62	0.328
LU99A	0.271
BEN	0.496
HARA	0.106
HCC-78	0.368
NCI-H322M	0.44
LCLC-97TM1	0.188
A-427	0.192
NCI-H441	0.619
NCI-H1734	0.261
NCI-H460	0.463
NCI-H2347	0.589
NCI-H1395	0.767
201T	0.939
NCI-H1915	0.418

Cell Line	relative viability
HCC-827	0.409
LXF-289	0.165
NCI-H23	0.379
NCI-H647	0.257
CAL-12T	0.25
NCI-H1651	0.388
EPLC-272H	0.229
NCI-H1355	0.543
NCI-H3122	0.365
NCI-H1437	0.361
NCI-H1755	0.552
HCC-15	0.41
NCI-H1793	0.263
PC-14	0.564
EKVX	0.379
LC-2-ad	0.404

same assay, conditions: first compound 1 µM

Cell Line	relative viability
NCI-H2405	0.816
HOP-62	0.413
LU99A	0.283
BEN	0.552
HARA	0.108
HCC-78	0.429
NCI-H322M	0.534
LCLC-97TM1	0.228
A-427	0.252
NCI-H441	0.721
NCI-H1734	0.287
NCI-H460	0.597
NCI-H2347	0.638
NCI-H1395	0.759
201T	0.976
NCI-H1915	0.482

Cell Line	relative viability
HCC-827	0.476
LXF-289	0.2
NCI-H23	0.378
NCI-H647	0.325
CAL-12T	0.363
NCI-H1651	0.759
EPLC-272H	0.229
NCI-H1355	0.609
NCI-H3122	0.465
NCI-H1437	0.422
NCI-H1755	0.653
HCC-15	0.462
NCI-H1793	0.369
PC-14	0.699
EKVX	0.474
